# From patent publication US20260217660A1, “INHIBITORS OF ACTIVIN RECEPTOR TYPE I (ACVRI) AND ACTIVIN RECEPTOR LIKE TYPE I (ACVRLI), AND METHODS USING SAME” (Baylor College of Medicine, priority 2023, published 2026)
# Positions count from the first letter of the chain named. Where “and” joins values, the source holds several entries; their conditions need not be identical. Equal entries are not always repeated.
# Legend:
# [1] = tested on: BMP2-induced luciferase activity in 293T-BRE-reporter cells; test: BMP2-induced luciferase reporter activity in 293T-BRE reporter cells; assay type: cell-based; details: 30 min pre-treatment, 5 ng/ml BMP2, 6 hours; for inhibition of BMP2-induced luciferase activity: 0.2, 1, 5, 25 μM
# Experimental: BMP2-dependent luciferase reporter activation was quantified after 6 hours using the Promega BrightGLO luciferase system on a Tecan Infinity M1000 Pro plate reader.
# FIG. 10 provides a bar graph depicting inhibition of BMP2-induced luciferase activity in 293T-BRE-reporter cells. Approximately 20,000 cells per well were plated in a 96-well plate and allowed to attach overnight. […] Cells were then stimulated with vehicle or 5 ng/ml BMP2 for 6 hours. Luciferase transactivation was assessed using the Promega BrightGLO luciferase system (Promega) and the signal was quantified using a plate reader (M1000 Pro).
# ACVR1^R206H = molecular target: T1, ACVR1^R206H (Homo sapiens, UniProt Q04771, R206H); test: Promega NanoBRET live-cell target engagement, ACVR1 (R206H); assay type: cell-based; details: in cellulo; NI = No inhibition at 40 μM
# T1 sequence (Q04771 21-509 R206H): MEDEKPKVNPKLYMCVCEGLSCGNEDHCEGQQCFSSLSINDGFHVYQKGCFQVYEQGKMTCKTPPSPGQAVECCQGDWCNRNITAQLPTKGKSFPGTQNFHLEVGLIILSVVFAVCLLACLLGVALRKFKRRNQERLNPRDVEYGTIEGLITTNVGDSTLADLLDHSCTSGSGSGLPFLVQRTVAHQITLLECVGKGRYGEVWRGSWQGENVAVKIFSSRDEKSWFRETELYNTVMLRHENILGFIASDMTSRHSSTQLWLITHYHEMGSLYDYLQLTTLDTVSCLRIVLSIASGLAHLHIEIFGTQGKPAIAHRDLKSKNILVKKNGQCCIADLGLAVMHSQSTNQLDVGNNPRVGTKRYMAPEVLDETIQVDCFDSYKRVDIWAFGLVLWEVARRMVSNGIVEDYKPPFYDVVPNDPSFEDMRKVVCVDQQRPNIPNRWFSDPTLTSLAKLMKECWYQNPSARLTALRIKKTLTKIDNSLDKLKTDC
# From the text: (§1) The Promega NanoBRET target engagement system involves cell-based competitive displacement of a fluorescent NanoBRET tracer bound reversibly to a NanoLuc fusion protein. Test compounds displace the tracer dependent on their affinity for the target and reduce […] the NanoBRET signal. […]
# ACVR1^WT = molecular target: T2, ACVR1^WT (Homo sapiens, UniProt Q04771); test: Promega NanoBRET live-cell target engagement, ACVR1; assay type: cell-based; details: in cellulo; NI = No inhibition at 40 μM
# T2 sequence (Q04771 21-509): T1 sequence (Q04771 21-509 R206H) with H186R
# From the text: as §1
# [2] = tested on: pSMAD1/5 in WT fibroblasts (WT GM01652); test: BMP2-induced pSMAD1/5 Western blot in primary WT fibroblasts; assay type: cell-based, human; details: 1, 5, 25 μM, 30 min pre-treatment, 5 ng/mL BMP2 45 min
# Experimental: (§2) FIG. 11 depicts inhibition of phosphorylated SMAD1/5 (pSMAD1/5) in primary WT and FOP fibroblasts. […] Subsequently, the fibroblasts were treated with vehicle (i.e., DMSO) or 5 ng/mL BMP2 in the presence of the inhibitors for 45 minutes. Cell lysates were then probed with antibodies against pSMAD1/5, total SMAD5, total SMAD1, and GAPDH (i.e., loading control) using a Western blot.
# [3] = tested on: pSMAD1/5 in FOP fibroblasts (FOP GM00513); test: BMP2-induced pSMAD1/5 Western blot in primary FOP fibroblasts; assay type: cell-based, human; details: 1, 5, 25 μM, 30 min pre-treatment, 5 ng/mL BMP2 45 min
# Experimental: as §2
# [4] = Metabolic stability in mouse liver microsomes; assay type: in vitro ADME; details: some cells add hours in brackets
# From the text: (§3) Exemplary compounds of the present disclosure have been evaluated for metabolic stability in mouse and human liver microsomes.
# [5] = Metabolic stability in human liver microsomes; assay type: in vitro ADME; details: some cells add hours in brackets
# From the text: as §3
# human kinome = test: KINOMEscan (Eurofins) binding across the human kinome; details: tested at a dose of 1 μM
# From the text: (§4) FIGS. 3A-3B depict a representation of KINOMEscan (Eurofins) binding data of CDD-2342 across the human kinome phylogenetic tree (FIG. 3A) and ThermoFisher Lantha kinase screen (FIG. 3B). FIG. 3A: The size of the circles (indicated with lines) are correlated with the affinity of ligand binding (i.e., larger circle, greater binding affinity). […] FIG. 3B: Using the ThermoFisher Lantha kinase screening assay, kinase specificity for ACVR1>ACVRL1>>BMPR1A>BMPR1B was observed.
# ACVRL1 [6] = molecular target: T3, ACVRL1 (Homo sapiens, UniProt P37023); test: ThermoFisher (Lantha) kinase assay, inhibition of ACVRL1; assay type: biochemical; details: in vitro, NA = not active at 1 μM
# T3 construct: purchased ThermoFisher
# ACVRL1 [7] = molecular target: T3, ACVRL1; test: Promega NanoBRET live-cell target engagement, ACVRL1; assay type: cell-based; details: in cellulo; NI = No inhibition at 40 μM
# From the text: The Promega NanoBRET target engagement system involves cell-based competitive displacement of a fluorescent NanoBRET tracer bound reversibly to a NanoLuc fusion protein. Test compounds displace the tracer dependent on their affinity for the target and reduce loss of the NanoBRET signal.
# Further, HEK29T cells with stable expression of a BMP reporter element driving luciferase expression can be used to test inhibition of BMP-induced luciferase transactivation. […] Additionally, utilizing the HEPG2 cell system described herein, responsiveness to activin and induction of Hepcidin (HAMP) gene expression can be probed in the presence and absence of ACVR1 inhibitors, as well as the influence of tacrolimus on activin-induced hepcidin gene expression.
# Thus, the in cellulo assays described herein comprise a luciferase reporter cell line system.
# BMPR1B = molecular target: T4, BMPR1B (Homo sapiens, UniProt O00238); test: ThermoFisher Lantha kinase screen, BMPR1B; assay type: biochemical; details: in vitro
# T4 construct: purchased ThermoFisher
# From the text: as §4
# (§5) Additionally, CDD-2342 is a >1000-fold better inhibitor of ACVR1 than non-TGFβ family kinases (FIGS. 3A-3B).
# ACVR1 = molecular target: T5, ACVR1 (Homo sapiens, UniProt Q04771); test: ThermoFisher (Lantha) kinase assay, inhibition of ACVR1; assay type: biochemical; details: for IC50: ThermoFisher Assay, in vitro
# T5 construct: purchased ThermoFisher
# T5 sequence (Q04771 21-509): T1 sequence (Q04771 21-509 R206H) with H186R
# BMPR1A = molecular target: T6, BMPR1A (Homo sapiens, UniProt P36894); test: ThermoFisher Lantha kinase screen, BMPR1A; assay type: biochemical; details: in vitro
# T6 construct: purchased ThermoFisher
# From the text: as §4, §5
# HepG2 cells = test: Cytotoxicity in HepG2 cells (Cell Titer GLO, cellular ATP); assay type: cell-based; details: 24 hours, concentrations up to 100 μM
# [8] = Pharmacokinetic study in mice, oral gavage; details: mouse, in vivo, 50 mg/kg oral gavage, n = 4, mean ± SD
# From the text: (§6) The present disclosure further provides exemplary pharmacokinetic data for compound CDD-2789.
# [9] = Plasma ALT and AST levels in mice after treatment; assay type: in vivo; details: 24 h post-administration, individual mice No. 1-4
# From the text: as §6
# T3 sequence (P37023 22-503): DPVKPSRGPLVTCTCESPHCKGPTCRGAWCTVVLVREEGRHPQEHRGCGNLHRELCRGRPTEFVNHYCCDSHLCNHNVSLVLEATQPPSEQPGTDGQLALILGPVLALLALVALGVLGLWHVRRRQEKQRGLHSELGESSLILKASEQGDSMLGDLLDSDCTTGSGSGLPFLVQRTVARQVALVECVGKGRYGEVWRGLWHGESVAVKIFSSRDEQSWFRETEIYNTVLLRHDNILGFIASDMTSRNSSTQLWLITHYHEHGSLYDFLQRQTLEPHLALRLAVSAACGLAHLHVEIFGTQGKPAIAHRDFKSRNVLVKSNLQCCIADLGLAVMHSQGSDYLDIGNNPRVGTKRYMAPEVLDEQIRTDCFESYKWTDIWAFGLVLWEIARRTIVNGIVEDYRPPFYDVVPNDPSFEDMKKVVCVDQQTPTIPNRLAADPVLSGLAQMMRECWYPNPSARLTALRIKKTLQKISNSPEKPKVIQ
# T4 sequence (O00238 14-502): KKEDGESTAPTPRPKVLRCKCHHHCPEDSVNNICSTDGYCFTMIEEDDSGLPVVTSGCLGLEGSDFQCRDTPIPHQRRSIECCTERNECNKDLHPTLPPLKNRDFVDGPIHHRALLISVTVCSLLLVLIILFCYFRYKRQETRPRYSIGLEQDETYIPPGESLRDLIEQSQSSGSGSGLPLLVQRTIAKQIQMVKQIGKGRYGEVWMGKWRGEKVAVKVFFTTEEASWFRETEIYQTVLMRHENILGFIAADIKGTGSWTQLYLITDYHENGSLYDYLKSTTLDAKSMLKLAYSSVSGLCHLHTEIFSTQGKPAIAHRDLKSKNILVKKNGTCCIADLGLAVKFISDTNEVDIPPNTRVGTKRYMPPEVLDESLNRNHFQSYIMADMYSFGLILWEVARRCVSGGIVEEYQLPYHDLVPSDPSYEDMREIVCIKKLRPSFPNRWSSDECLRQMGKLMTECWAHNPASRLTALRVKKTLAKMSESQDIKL
# T6 sequence (P36894 24-532): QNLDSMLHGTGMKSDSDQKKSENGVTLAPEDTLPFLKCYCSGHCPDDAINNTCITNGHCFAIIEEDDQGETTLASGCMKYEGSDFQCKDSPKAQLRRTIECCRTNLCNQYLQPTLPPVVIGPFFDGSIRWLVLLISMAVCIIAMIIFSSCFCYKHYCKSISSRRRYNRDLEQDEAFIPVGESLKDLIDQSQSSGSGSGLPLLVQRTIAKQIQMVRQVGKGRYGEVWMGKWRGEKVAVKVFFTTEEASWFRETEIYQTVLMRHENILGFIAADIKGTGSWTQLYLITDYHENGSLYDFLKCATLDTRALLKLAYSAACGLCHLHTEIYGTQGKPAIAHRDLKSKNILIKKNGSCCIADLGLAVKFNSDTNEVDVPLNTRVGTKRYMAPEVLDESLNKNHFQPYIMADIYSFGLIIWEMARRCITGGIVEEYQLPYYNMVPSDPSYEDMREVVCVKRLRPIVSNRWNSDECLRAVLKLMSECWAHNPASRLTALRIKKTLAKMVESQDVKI
Compound,inhibition of BMP2-induced luciferase activity [1],IC50 (ACVR1^R206H),IC50 (ACVR1^WT),"suppression of BMP2-induced pSMAD1/5 activation, WT fibroblasts [2]","suppression of BMP2-induced pSMAD1/5 activation, FOP fibroblasts [3]",Metabolism MLM [4] [min],Metabolism HLM [5] [min],IC50 (ACVRL1 [6]) [nM],IC50 (ACVRL1 [7]),IC50 (ACVR1) [nM],also measured
"COc1cc(-c2nc3ccc(C(=O)NCCCN4CCN(c5ccccc5)CC4)cc3n2C2CCC2)cc(OC)c1OC [CDD-2315, 1-cyclobutyl-N-(3-(4-phenylpiperazin-1-yl)propyl)-2-(3,4,5-trimethoxyphenyl)-1H-benzo[d]imidazole-6-carboxamide]",Potent inhibition,2600 nM,560 nM,suppressed,suppressed,6.3,7.8,–,–,–,–
"CNC(=O)[C@H]1C[C@H](n2c(-c3cc(F)cc(OC)c3)nc3ccc(C(=O)NCCCN4CCN(c5ccccc5)CC4)cc32)C1 [CDD-2340, 2-(3-fluoro-5-methoxyphenyl)-1-((1r,3r)-3-(methylcarbamoyl)cyclobutyl)-N-(3-(4-phenylpiperazin-1-yl)propyl)-1H-benzo[d]imidazole-6-carboxamide]",Potent inhibition,9200 nM,5300 nM,suppressed,suppressed,7.1,24.4,–,–,–,–
"COc1cc(-c2nc3ccc(C(=O)NCCCN4CCN(c5cccc(C)c5C)CC4)cc3n2C2CCC2)cc(OC)c1OC [CDD-2342, 1-cyclobutyl-N-(3-(4-(2,3-dimethylphenyl)piperazin-1-yl)propyl)-2-(3,4,5-trimethoxyphenyl)-1H-benzo[d]imidazole-6-carboxamide]",–,1470 nM and 1480 nM,830 nM and 810 nM,–,–,0,0.5,18.8,11100 nM and 11400 nM,6.1,"inhibition of BMP2-induced reporter activity ([1]; 1 μM, 5 μM, 10 μM): significantly inhibits; off-target binding across the human kinome (human kinome): minimal off-target binding; IC50 (BMPR1B): 687 nM; fold better inhibitor of ACVR1 than non-TGFβ family kinases (ACVR1; FIGS. 3A-3B): > 1000 fold; kinase specificity (rank order) (ACVR1; ThermoFisher Lantha kinase screening assay, FIG. 3B): ACVR1>ACVRL1>>BMPR1A>BMPR1B; IC50 (BMPR1A): 257 nM"
"CNC(=O)[C@H]1C[C@H](n2c(-c3cc(OC)cc(OC)c3)nc3ccc(C(=O)NCCCN(C)C)cc32)C1 [CDD-2686, 2-(3,5-dimethoxyphenyl)-N-(3-(dimethylamino)propyl)-1-((1r,3r)-3-(methylcarbamoyl)cyclobutyl)-1H-benzo[d]imidazole-6-carboxamide]",–,29600 nM,28200 nM,–,–,–,–,72.2,> 40000 nM,34.3,–
"CNC(=O)[C@H]1C[C@H](n2c(-c3cc(OC)ccc3OC)nc3ccc(C(=O)NCCCN(C)C)cc32)C1 [CDD-2687, 2-(2,5-dimethoxyphenyl)-N-(3-(dimethylamino)propyl)-1-((1r,3r)-3-(methylcarbamoyl)cyclobutyl)-1H-benzo[d]imidazole-6-carboxamide]",–,> 40000 nM,> 40000 nM,–,–,–,–,78.7,> 40000 nM,25.1,–
"COc1cc(-c2nc3ccc(C(=O)NCCCN4CCN(c5ccccn5)CC4)cc3n2C2CCC2)cc(OC)c1OC [CDD-2787, 1-cyclobutyl-N-(3-(4-(pyridin-2-yl)piperazin-1-yl)propyl)-2-(3,4,5-trimethoxyphenyl)-1H-benzo[d]imidazole-6-carboxamide]",Potent inhibition,705 nM,473 nM,suppressed,suppressed,3.3,9.8,–,–,–,–
"COc1cc(-c2nc3ccc(C(=O)NCCCN(C)C)cc3n2C2CCC2)cc(OC)c1OC [CDD-2789, 1-cyclobutyl-N-(3-(dimethylamino)propyl)-2-(3,4,5-trimethoxyphenyl)-1H-benzo[d]imidazole-6-carboxamide]",Potent inhibition,–,–,suppressed,suppressed,–,–,9.9,–,–,"cytotoxicity (cell viability, cellular ATP) (HepG2 cells): no cytotoxicity; half-life [8]: ~3.42 h; Plasma ALT [9]: 21.83 IU/L and 165.48 IU/L and 25.81 IU/L and 23.60 IU/L; Plasma AST [9]: 30.76 IU/L and 141.26 IU/L and 42.08 IU/L and 55.52 IU/L; Metabolism MLM (Min) [4]: 505 (8.4 h) Min; Metabolism HLM (Min) [5]: 2767 (46.1 h) Min"
"N-(3-(4-benzoylpiperazin-1-yl)propyl)-1-cyclobutyl-2-(3,4,5-trimethoxyphenyl)-1H-benzo[d]imidazole-6-carboxamide [CDD-2791]",–,2600 nM,1080 nM,–,–,2.8,15.4,14.6,> 40000 nM,7.9,–
